Laboratory results from US20260285850A1, “SUBSTITUTED OXAZOLIDINONES AND IMIDAZOLINONES AS HERBICIDES” (FMC CORPORATION, priority 2023, published 2026).

Columns and labels:
Assay type in all cases: in vivo
[1] = system: sedge, umbrella (small-flower umbrella sedge, Cyperus difformis); test: Test B flooded paddy test, visual plant response rating 0-100; details: 250 g ai/ha, Flood, applied to paddy water, evaluated after 13 days
Outline: (§1)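 Greenhouse, 13 d. Seedlings at 2-leaf stage, pots flooded to 3 cm, compound delivered into floodwater, water level held constant. Evaluated visually relative to controls.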

rice (Oryza sativa) = test: as above; details: 250 g ai/ha, Flood, applied to paddy water, evaluated after 13 days
Outline: as §1

[2] = system: barnyardgrass (Echinochloa crusgalli); test: as above; details: 250 g ai/ha, Flood, applied to paddy water, evaluated after 13 days
Outline: as §1

[3] = system: ducksalad (Heteranthera limosa); test: as above; details: 250 g ai/ha, Flood, applied to paddy water, evaluated after 13 days
Outline: as §1

corn (Zea mays) [4] = test: Test A postemergence application, visual injury rating 0-100
Outline: (§2)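 Visual injury ratings (0, no effect; 100, complete control) were assigned relative to untreated plants 10 days after treatment. Test chemicals, formulated with a surfactant-containing non-phytotoxic solvent, were applied in loam-sand soil either as a directed soil spray before emergence or to emerged plants, and plants were kept in a greenhouse.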

[5] = system: wheat (Triticum aestivum); test: as above
Outline: as §2

[6] = system: ryegrass, Italian (italian ryegrass, Lolium multiflorum); test: as above
Outline: as §2

[7] = system: ragweed (common ragweed, Ambrosia artemisiifolia); test: as above
Outline: as §2

[8] = system: horseweed (Erigeron canadensis); test: as above
Outline: as §2

[9] = system: barnyardgrass (Echinochloa crus-galli); test: as above
Outline: as §2

[10] = system: palmer (palmer amaranth, palmer pigweed, Amaranthus palmeri); test: as above
Outline: as §2

[11] = system: green foxtail (Setaria viridis); test: as above
Outline: as §2

kochia (Bassia scoparia) [12] = test: as above
Outline: as §2

soybean (Glycine max) [13] = test: as above
Outline: as §2

[14] = system: oat, wild (wild oat, Avena fatua); test: as above
Outline: as §2

[15] = system: blackgrass (Alopecurus myosuroides); test: as above
Outline: as §2

corn (Zea mays) [16] = test: Test A preemergence soil spray, visual injury rating 0-100; details: 10 days
Outline: as §2

[17] = system: wheat (Triticum aestivum); test: as above; details: 10 days
Outline: as §2

[18] = system: ryegrass, Italian (italian ryegrass, Lolium multiflorum); test: as above; details: 10 days
Outline: as §2

[19] = system: ragweed (common ragweed, Ambrosia artemisiifolia); test: as above; details: 10 days
Outline: as §2

[20] = system: barnyardgrass (Echinochloa crus-galli); test: as above; details: 10 days
Outline: as §2

[21] = system: palmer (palmer amaranth, palmer pigweed, Amaranthus palmeri); test: as above; details: 10 days
Outline: as §2

[22] = system: green foxtail (Setaria viridis); test: as above; details: 10 days
Outline: as §2

kochia (Bassia scoparia) [23] = test: as above; details: 10 days
Outline: as §2

soybean (Glycine max) [24] = test: as above; details: 10 days
Outline: as §2

[25] = system: oat, wild (wild oat, Avena fatua); test: as above; details: 10 days
Outline: as §2

[26] = system: blackgrass (Alopecurus myosuroides); test: as above; details: 10 days
Outline: as §2

[27] = 62 g ai/ha, postemergence, 10 days, 0 = no effect, 100 = complete control
[28] = Postemergence, 16 g ai/ha, greenhouse 10 days, 0 no effect, 100 complete control
[29] = 62 g ai/ha, 0 = no effect, 100 = complete control

`COC(=O)COC(=O)C1=CCC(NC(=O)C2(C)CN(c3cc(Cl)cc(Cl)c3)C(=O)O2)C1` (centres unmarked) [Compound 110] was tested, and the “Plant response rating, Sedge, Umbrella (0 to 100 scale, 0 is no effect and 100 is complete control)” value [1] was 98, the “Plant response rating, Rice (0 to 100 scale, 0 is no effect and 100 is complete control)” value (rice (Oryza sativa)) was 40 and the “Plant response rating, Barnyardgrass (0 to 100 scale, 0 is no effect and 100 is complete control)” value [2] was 60. For the same compound, the “Plant response rating, Ducksalad (0 to 100 scale, 0 is no effect and 100 is complete control)” value [3] was 95, the “Corn plant response rating (0-100)” value (corn (Zea mays) [4]; [27]) was 100 and the “Corn plant response rating (0 to 100 scale)” value (corn (Zea mays) [4]; [28]) was 100. For the same compound, the “Wheat plant response rating (0-100)” value [5, 27] was 90, the “Wheat plant response rating (0 to 100 scale)” value [5, 28] was 50 and the “Ryegrass, Italian plant response rating (0-100)” value [6, 27] was 70. The “Ryegrass, Italian plant response rating (0 to 100 scale)” value [6, 28] was 50, the “Ragweed plant response rating (0-100)” value [7, 27] was 80 and the “Ragweed plant response rating (0 to 100 scale)” value [7, 28] was 50. For the same compound, the “Horseweed plant response rating (0-100)” value [8, 27] was 80, the “Horseweed plant response rating (0 to 100 scale)” value [8, 28] was 70 and the “Barnyardgrass plant response rating (0-100)” value [9, 27] was 100. The “Barnyardgrass plant response rating (0 to 100 scale)” value [9, 28] was 90, the “Pigweed, Palmer plant response rating (0-100)” value [10, 27] was 100 and the “Pigweed, Palmer plant response rating (0 to 100 scale)” value [10, 28] was 90. For the same compound, the “Foxtail, Green plant response rating (0-100)” value [11, 27] was 90, the “Foxtail, Green plant response rating (0 to 100 scale)” value [11, 28] was 90 and the “Kochia plant response rating (0-100)” value (kochia (Bassia scoparia) [12]; [27]) was 90. The “Kochia plant response rating (0 to 100 scale)” value (kochia (Bassia scoparia) [12]; [28]) was 90, the “Soybean plant response rating (0-100)” value (soybean (Glycine max) [13]; [27]) was 70 and the “Soybean plant response rating (0 to 100 scale)” value (soybean (Glycine max) [13]; [28]) was 30. The “Oat, Wild plant response rating (0-100)” value [14, 27] was 30, the “Oat, Wild plant response rating (0 to 100 scale)” value [14, 28] was 20 and the “Blackgrass plant response rating (0-100)” value [15, 27] was 100. The “Blackgrass plant response rating (0 to 100 scale)” value [15, 28] was 80, the “Corn plant response rating” value (corn (Zea mays) [16]; 16 g ai/ha, 0 to 100 scale) was 0 and the “Corn plant response rating (0-100)” value (corn (Zea mays) [16]; [29]) was 30. For the same compound, the “Wheat plant response rating” value ([17]; 16 g ai/ha, 0 to 100 scale) was 40, the “Wheat plant response rating (0-100)” value [17, 29] was 80 and the “Ryegrass, Italian plant response rating” value ([18]; 16 g ai/ha, 0 to 100 scale) was 0. For the same compound, the “Ryegrass, Italian plant response rating (0-100)” value [18, 29] was 60, the “Ragweed plant response rating” value ([19]; 16 g ai/ha, 0 to 100 scale) was 0 and the “Ragweed plant response rating (0-100)” value [19, 29] was 0. The “Barnyardgrass plant response rating” value ([20]; 16 g ai/ha, 0 to 100 scale) was 50, the “Barnyardgrass plant response rating (0-100)” value [20, 29] was 100 and the “Pigweed, Palmer plant response rating” value ([21]; 16 g ai/ha, 0 to 100 scale) was 80. For the same compound, the “Pigweed, Palmer plant response rating (0-100)” value [21, 29] was 100, the “Foxtail, Green plant response rating” value ([22]; 16 g ai/ha, 0 to 100 scale) was 0 and the “Foxtail, Green plant response rating (0-100)” value [22, 29] was 90. The “Kochia plant response rating” value (kochia (Bassia scoparia) [23]; 16 g ai/ha, 0 to 100 scale) was 0, the “Kochia plant response rating (0-100)” value (kochia (Bassia scoparia) [23]; [29]) was 0 and the “Soybean plant response rating” value (soybean (Glycine max) [24]; 16 g ai/ha, 0 to 100 scale) was 10. For the same compound, the “Soybean plant response rating (0-100)” value (soybean (Glycine max) [24]; [29]) was 0, the “Oat, Wild plant response rating” value ([25]; 16 g ai/ha, 0 to 100 scale) was 0 and the “Oat, Wild plant response rating (0-100)” value [25, 29] was 0. The “Blackgrass plant response rating” value ([26]; 16 g ai/ha, 0 to 100 scale) was 0 and the “Blackgrass plant response rating (0-100)” value [26, 29] was 30.
